Experimental data: patent US10392389B2, “Heterocyclic compounds for the inhibition of PASK” (BioEnergenix, LLC, priority 2012, dated 2019)

molecular target: T1, PASK (Invitrogen) (Homo sapiens, UniProt Q96RG2); assay: PAS Kinase FRET Assay; assay type: biochemical; details: PAS kinase TR-FRET assay (665 nm/615 nm); read-out: IC50 Kinase Domain
T1 construct: IC50 Kinase Domain; purchased Invitrogen
From the text: (§1) Biochemical Assay for hPASK Activity
The aim of the FRET assay is to determine the inhibition potential of test compounds on targeted kinase. This assay platform provides a homogenous screening method for measuring kinase activity by quantitating the amount of phospho-substrate in solution following a kinase reaction.
In the presence of kinase and ATP, the Ulight-peptide is phosphorylated and captured by an anti-phospho-substrate antibody, which brings the Eu chelate donor and Ulight acceptor dyes into close proximity. Upon excitation at 340 nm, the Eu chelate transfers its energy to the Ulight dye, resulting in a fluorescent light emission at 665 nm.
Titration of kinase at 1 mM ATP was achieved via the following protocol. After making serial three-fold dilutions of PASK (Invitrogen) in reaction buffer across the plate; 5 μl of kinase dilution and 5 μl substrate/ATP mix were added to the wells of the white Optiplate-384 (PerkinElmer). The contents of the plate were and incubated at RT for 1 h. The reaction was stopped by adding 5 μl of stop solution to each test well followed by mixing and incubation at RT for 10 minutes. 5 μl of detection mix (detection antibody diluted in detection buffer) was added; the contents of the plate were mixed and then incubated in the dark for 1 hour at RT. The signal was recorded at TR-FRET mode (665 nm/615 nm). The results were graphed to calculate the EC50.
Titration of ATP at the EC50 concentration of kinase to determine ATP Km,app. was performed using the following method. After making serial dilutions of ATP (Invitrogen), 5 μl of ATP dilution and 5 μl substrate/kinase mix were added to the wells of the white Optiplate-384 (PerkinElmer). The contents of the plate were and incubated at RT for 1 h. The reaction was stopped by adding 5 μl of stop solution to each test well followed by mixing and incubation at RT for 10 minutes. 5 μl of detection mix (detection antibody diluted in detection buffer) was added; the contents of the plate were mixed and then incubated in the dark for 1 hour at RT. The signal was recorded at TR-FRET mode (665 nm/615 nm). The results were graphed to calculate the EC50 as the ATP Km,app.
Compound screening was done via the following method. 10 mM stock solution of test compound in DMSO was prepared by dissolving test compound in DMSO at RT for 1 hour, and then sonicating at 100% output for 8 minutes. If compound is not soluble under this condition, it was diluted to 3 mM. Kinase reaction buffer was prepared containing 10 mM MgCl2, 50 mM HEPES, 1 mM EGTA, 0.01% TWEEN-20, 2 mM DTT. Serial dilutions of the test compounds were prepared at 4× final assay concentrations using Freedom EVO200® dispensing system as follows: 12×10^−5 M, 4×10^−5 M, 1.33×10^−5 M, 4.44×10^−6 M, 1.48×10^−6 M, 4.92×10^−7 M, 1.65×10^−7 M, […], 1.82×10^−8M, 6.09×10^−9, 2.03×10^−9 M. Test compounds (2.5 μl at 4× the final assay concentration) was added to wells using Freedom EVO200® dispensing system. As a positive control, 2.5 μl of positive compound was added to assay wells, and 2.5 μl of DMSO to assay wells as vehicle control. Kinase solution was prepared in reaction buffer at 2× final assay concentration. Kinase solution (5 μl) was added to each well of the assay plate. The substrate and ATP solution was prepared in kinase reaction buffer at 4× final assay concentration. The kinase reaction was started by adding 2.5 μl of substrate+ATP mix solution to each well of the assay plate. The plate is mixed on a plate shaker; then covered and allowed to react for 2 hours in the dark at 25° C. without shaking. The reaction was stopped by adding 5 μl of stop solution to each test well followed by mixing and incubation at RT for 10 minutes in the dark. 5 μl of detection mix (detection antibody diluted in detection buffer) was added; the contents of the plate were mixed and then incubated in the dark for 1 hour at RT. The signal was recorded at TR-FRET mode (665 nm/615 nm).

T1 sequence (Q96RG2 999-1251 limits assumed): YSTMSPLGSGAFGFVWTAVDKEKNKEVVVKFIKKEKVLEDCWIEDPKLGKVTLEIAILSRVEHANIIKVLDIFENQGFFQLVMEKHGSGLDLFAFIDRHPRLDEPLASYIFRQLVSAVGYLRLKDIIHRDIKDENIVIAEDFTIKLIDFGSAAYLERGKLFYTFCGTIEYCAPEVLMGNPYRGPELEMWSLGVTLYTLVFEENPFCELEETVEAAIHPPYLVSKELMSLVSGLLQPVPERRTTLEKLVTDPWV

Compound | IC50 [µM]
CCc1noc2cc(-c3cc(=O)n4ncc(-c5ncc(C)o5)c4[nH]3)ccc12 [Example 121, 5-(3-ethylbenzo[d]isoxazol-6-yl)-3-(5-methyloxazol-2-yl)pyrazolo[1,5-a]pyrimidin-7(4H)-one] | ≤ 10
CCn1ncc2cc(-c3cc(=O)n4nc(C)c(-c5nc(C)co5)c4[nH]3)ccc21 [Example 42, 5-(1-ethyl-1H-indazol-5-yl)-2-methyl-3-(4-methyloxazol-2-yl)-4H,7H-pyrazolo[1,5-a]pyrimidin-7-one] | ≤ 10
CCn1ncc2cc(-c3cc(=O)n4nc(C)c(-c5nc(C)no5)c4[nH]3)ccc21 [Example 115, 5-(1-ethyl-1H-indazol-5-yl)-2-methyl-3-(3-methyl-1,2,4-oxadiazol-5-yl)-4H,7H-pyrazolo[1,5-a]pyrimidin-7-one] | ≤ 10
Cc1coc(-c2cnn3c(=O)cc(-c4ccc5onc(C)c5c4)[nH]c23)n1 [Example 90, 5-(3-methylbenzo[d]isoxazol-5-yl)-3-(4-methyloxazol-2-yl)pyrazolo[1,5-a]pyrimidin-7(4H)-one] | ≤ 10
CCn1ncc2ccc(-c3cc(=O)n4ncc(-c5ncco5)c4[nH]3)cc21 [Example 109, 5-(1-ethyl-1H-indazol-6-yl)-3-(oxazol-2-yl)pyrazolo[1,5-a]pyrimidin-7(4H)-one] | ≤ 10

Other lines, results leading:

IC50 [µM] | Compound
≤ 10 | O=c1cc(-c2ccc3c(c2)OCO3)[nH]c2c(-c3ncco3)cnn12 [Example 1, 5-(2H-1,3-benzodioxol-5-yl)-3-(1,3-oxazol-2-yl)-4H,7H-pyrazolo[1,5-a]pyrimidin-7-one]
≤ 10 | CCc1nn2c(=O)cc(-c3ccc4c(cnn4CC)c3)[nH]c2c1-c1nc(C)no1 [Example 114, 2-ethyl-5-(1-ethyl-1H-indazol-5-yl)-3-(3-methyl-1,2,4-oxadiazol-5-yl)pyrazolo[1,5-a]pyrimidin-7(4H)-one]
≤ 10 | CCc1noc2cc(-c3cc(=O)n4ncc(C(N)=O)c4[nH]3)ccc12 [Example 123, 5-(3-ethylbenzo[d]isoxazol-6-yl)-7-oxo-4,7-dihydropyrazolo[1,5-a]pyrimidine-3-carboxamide]
≤ 10 | CCn1nnc2cc(-c3cc(=O)n4ncc(-c5ncco5)c4[nH]3)ccc21 [Example 49, 5-(1-ethyl-1H-benzo[d][1,2,3]triazol-5-yl)-3-(oxazol-2-yl)pyrazolo[1,5-a]pyrimidin-7(4H)-one]
≤ 10 | CC(C)n1ncc2cc(-c3cc(=O)n4ncc(-c5ccnn5C)c4[nH]3)ccc21 [Example 88, 5-(1-isopropyl-1H-indazol-5-yl)-3-(1-methyl-1H-pyrazol-5-yl)pyrazolo[1,5-a]pyrimidin-7(4H)-one]
≤ 10 | CCn1ncc2cc(-c3cc(=O)n4ncc(-c5nnc(C)o5)c4[nH]3)ccc21 [Example 31, 5-(1-ethyl-1H-indazol-5-yl)-3-(5-methyl-1,3,4-oxadiazol-2-yl)-4H,7H-pyrazolo[1,5-a]pyrimidin-7-one]
≤ 10 | Cc1noc(-c2cnn3c(=O)cc(-c4ccc(Cl)cc4)[nH]c23)n1 [Example 7, 5-(4-chlorophenyl)-3-(3-methyl-1,2,4-oxadiazol-5-yl)-4H,7H-pyrazolo[1,5-a]pyrimidin-7-one]

molecular target: T2, PASK (UniProt #Q96RG2; human recombinant N-terminal GST tagged construct, residues 879-1323) (Homo sapiens, UniProt Q96RG2); assay: PASK ATP Radiochemical Assay; assay type: biochemical; details: 33P-ATP, Myelin Basic Protein substrate, read-out: IC50 Kinase Domain
T2 construct: N-terminal GST tagged construct, residues 879-1323; GST (N); host or cells: insect cells
T2 sequence (Q96RG2 879-1323, stated change not applied): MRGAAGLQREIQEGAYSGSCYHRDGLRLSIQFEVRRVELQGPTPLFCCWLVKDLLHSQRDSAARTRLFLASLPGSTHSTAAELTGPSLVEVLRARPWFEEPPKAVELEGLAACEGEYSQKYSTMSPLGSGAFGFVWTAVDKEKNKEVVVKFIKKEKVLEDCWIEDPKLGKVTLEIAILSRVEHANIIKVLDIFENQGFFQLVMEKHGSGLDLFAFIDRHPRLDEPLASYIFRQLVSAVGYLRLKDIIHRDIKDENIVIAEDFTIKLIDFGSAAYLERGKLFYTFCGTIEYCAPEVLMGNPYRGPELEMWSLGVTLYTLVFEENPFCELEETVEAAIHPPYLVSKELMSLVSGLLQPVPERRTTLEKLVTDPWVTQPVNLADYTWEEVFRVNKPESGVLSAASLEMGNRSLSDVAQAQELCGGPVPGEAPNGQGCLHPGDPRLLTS
Procedure: as §1
PASK ATP Radiochemical Assay
Purified PASK (UniProt #Q96RG2; human recombinant N-terminal GST tagged construct, residues 879-1323) from insect cells (final concentration 5 nM) is added to freshly prepared Base Reaction Buffer containing 20 mM HEPES (pH 7.5), 10 mM MgCl2, 1 mM EGTA, 0.02% Brij35, 0.02 mg/ml BSA, 0.1 mM Na3VO4, 2 mM DTT, 1% DMSO and Myelin Basic Protein (20 μM final). Test compounds in DMSO are then added and the mixture, followed by delivery of ^33P-ATP (specific activity 0.01 μCi/μl final) to initiate the reaction. The kinase reaction is incubated for 120 min at room temperature. The entire reaction mixture is washed through onto a P81 Phosphocellulose paper and washed three times for 10 minutes in 75 mM phosphoric acid and once in methanol prior to drying and scintillation counting.

IC50 [µM] | Compound
≤ 10 | O=c1cc(-c2ccc3c(c2)OCO3)[nH]c2c(-c3ncco3)cnn12 [Example 1, 5-(2H-1,3-benzodioxol-5-yl)-3-(1,3-oxazol-2-yl)-4H,7H-pyrazolo[1,5-a]pyrimidin-7-one]
